Experimental data published in paper PMC11784839, “Monoaminergic neurotransmitters are bimodal effectors of tau aggregation” (Science Advances, 2025).

Molecular target: tau (Homo sapiens, UniProt P10636)
Test: MCE Phenols Library screening, tau biosensor cell seeding assay (AvZ)
Type: cell-based
Conditions: for Z repl 1 / Z Repl 2: Z score; for Z repl 1 / raw data 1: replicate 1; for Z Repl 2 / raw data 2: replicate 2; for AvZ (average z score of seeding, SDs from the mean level of seeding): 10 μM phenol in cell cultures, AD brain homogenate preincubated 16 hours, two biological replicates, positive = catalyzes seeding, negative = inhibits
[1] = average Z score of the two replicates, MCE Phenols Library screen
[2] = average puncta of the two replicates
[3] = average Z score of the two replicates, tau seeding
[4] = average Z score of two replicates, Phenols Library screen
[5] = average Z score of the two replicates, tau biosensor seeding, MCE Phenols Library screen

Sequence of tau (P10636 623-695 limits assumed): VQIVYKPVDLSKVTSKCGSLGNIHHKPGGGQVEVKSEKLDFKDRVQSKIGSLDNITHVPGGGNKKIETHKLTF

Structure (SMILES) | Z repl 1 | Z Repl 2 | av Z [1] | av puncta (average of raw data 1 and 2) | raw data 1 (puncta) | raw data 2 (puncta) | av puncta [2] | raw data 1 (raw puncta) | raw data 2 (raw puncta) | av Z [3] | av Z [4] | AvZ (average z score of seeding, SDs from the mean level of seeding) | av Z [5]
C[C@H]1O[C@@H](O[C@H]2[C@H](Oc3c(-c4ccc(O)cc4)oc4cc(O)cc(O)c4c3=O)O[C@@H](CO)[C@H](O)[C@H]2O)[C@H](O)[C@@H](O)[C@@H]1O [Kaempferol-3-O-glucorhamnoside] | -0.601 | -1.001 | -0.801 | 10603.6 | 19130.8 | 2076.39 |  |  |  |  |  |  | 
O=c1c(O)c(-c2ccc(O)cc2)oc2cc(O)cc(O)c12 [Kaempferol] | -0.004 | -0.903 | -0.454 |  |  |  | 14707.1 | 26297.7 | 3116.65 |  |  |  | 
O=C(CCc1ccc(O)c(O)c1)NCCCNCCCCNCCCNC(=O)CCc1ccc(O)c(O)c1 [Kukoamine A] | -0.156 | -0.952 | -0.554 |  | 24479.5 | 2602.81 | 13541.2 |  |  |  |  |  | 
NCCCN(CCCCNCCCNC(=O)CCc1ccc(O)c(O)c1)C(=O)CCc1ccc(O)c(O)c1 [Kukoamine B] | -1.263 | -0.72 | -0.992 | 8130.71 | 11188.8 | 5072.6 |  |  |  |  |  |  | 
OC[C@H]1O[C@@H](Oc2cc3c(O)cc(O)cc3[o+]c2-c2ccc(O)c(O)c2)[C@H](O)[C@@H](O)[C@@H]1O.[Cl-] [Kuromanin (chloride)] | -0.084 | -0.888 | -0.486 |  | 25345.8 | 3284.04 | 14314.9 |  |  |  |  |  | 
C=C(C)[C@H](CC=C(C)C)Cc1c(O)cc(O)c2c1O[C@H](c1ccccc1O)CC2=O [Kushenol A] | 0.183 | 1.024 |  | 26122.8 | 28541 | 23704.6 |  |  |  | 0.603 |  |  | 
C=C(C)[C@H](CC=C(C)C)Cc1c(O)cc(OC)c2c1O[C@H](c1ccc(O)cc1O)[C@@H](O)C2=O [Kushenol I] | 0.564 | -0.398 |  | 20816.6 | 33117.8 | 8515.32 |  |  |  |  | 0.083 |  | 
CC(C)=CCc1c(-c2ccc(O)cc2O)oc2c([C@H]3C=C(C)C[C@@H](c4ccc(O)cc4O)[C@@H]3C(=O)c3ccc(O)cc3O)c(O)cc(O)c2c1=O [Kuwanon G] | 0.063 | 0.629 |  | 23290.6 | 27102.4 | 19478.8 |  |  |  | 0.346 |  |  | 
CC(C)=CCc1c(O)ccc(C(=O)[C@@H]2[C@@H](c3c(O)cc(O)c4c(=O)c(CC=C(C)C)c(-c5ccc(O)cc5O)oc34)C=C(C)C[C@H]2c2ccc(O)cc2O)c1O [Kuwanon H] | -0.22 | 0.532 |  | 21077.1 | 23703 | 18451.1 |  |  |  | 0.156 |  |  | 
N[C@@H](Cc1c[nH]c2ccc(O)cc12)C(=O)O [L-5-Hydroxytryptophan] | 0.279 | -0.269 |  | 19792.1 | 29696.2 | 9887.95 |  |  |  |  |  | 0.005 | 
COc1cc2c(cc1O)-c1c(OC)c(O)cc3c1[C@H](C2)NCC3 [Laetanine] | -0.508 | -0.181 | -0.344 |  |  |  | 15544.8 | 20251.6 | 10838.1 |  |  |  | 
CC[C@@H](C(=O)[C@@H](C)[C@@H](O)[C@H](C)CCc1ccc(C)c(O)c1C(=O)O)[C@H]1O[C@](CC)([C@H]2CC[C@](O)(CC)[C@H](C)O2)C[C@@H]1C [Lasalocid] | 0.41 | -0.218 |  | 20851.6 | 31268.6 | 10434.5 |  |  |  |  | 0.096 |  | 
C=C(C)[C@H](CC=C(C)C)Cc1c(O)cc(O)c2c1O[C@H](c1ccc(O)cc1OC)CC2=O [Leachianone A] | -0.298 | 0.052 |  | 18045.6 | 22771.5 | 13319.6 |  |  |  |  | -0.123 |  | 
COc1cc(C(=O)OCCCCNC(=N)N)cc(OC)c1O [Leonurine] | 1.449 | 1.251 |  | 34936.6 | 43747.9 | 26125.3 |  |  |  |  |  | 1.35 | 
Oc1cc(O)c2c(c1)O[C@H](c1ccc(O)c(O)c1)[C@@H](O)[C@H]2O [Leucocyanidin] | -0.147 | -0.356 | -0.251 |  |  |  | 16774.6 | 24584.1 | 8965.07 |  |  |  | 
COc1c(/C=C/C(=O)c2ccc(O)c(CC=C(C)C)c2)ccc(O)c1O [Licochalcone D] | 0.138 | 0.907 |  | 25231 | 28009.4 | 22452.6 |  |  |  | 0.523 |  |  | 
CC(C)=CCc1cc2c(=O)cc(-c3ccc(O)cc3)oc2cc1O [Licoflavone A] | 1.035 | 0.525 |  | 28570.9 | 38768.9 | 18372.9 |  |  |  |  |  |  | 0.78
COc1cc2c(cc1OC)[C@@H](Cc1ccc(O)c(Oc3cc4c(cc3OC)CCN(C)[C@@H]4Cc3ccc(O)cc3)c1)N(C)CC2 [Liensinine] | -0.418 | -0.081 | -0.249 |  |  |  | 16619 | 21336.6 | 11901.3 |  |  |  | 
O=C1C[C@@H](c2ccc(O[C@@H]3O[C@H](CO)[C@@H](O)[C@H](O)[C@H]3O)cc2)Oc2cc(O)ccc21 [Liquiritin] | 0.131 | -0.067 |  | 19987.6 | 27927.2 | 12048 |  |  |  |  | 0.032 |  | 
Oc1cc(O)c2ccc(-c3ccc(O)c(O)c3)[o+]c2c1.[Cl-] [Luteolinidin (chloride)] | -0.952 | -1.154 | -1.053 | 7678.85 | 14921.6 | 436.094 |  |  |  |  |  |  | 
C=CCc1ccc(O)c(-c2cc(CC=C)ccc2O)c1 [Magnolol] | 0.295 | 1.074 |  | 27065.9 | 29891.7 | 24240.1 |  |  |  | 0.685 |  |  | 

Results, then the compound that gave them:

Z repl 1 | Z Repl 2 | av Z [1] | av puncta (average of raw data 1 and 2) | raw data 1 (puncta) | raw data 2 (puncta) | av puncta [2] | raw data 1 (raw puncta) | raw data 2 (raw puncta) | av Z [3] | av Z [4] | AvZ (average z score of seeding, SDs from the mean level of seeding) | av Z [5] | Structure (SMILES)
-1.337 | -0.834 | -1.085 | 7079.11 | 10304.3 | 3853.96 |  |  |  |  |  |  |  | O=C(/C=C/c1ccc(O)c2c1[C@H](C(=O)O)[C@@H](c1ccc(O)c(O)c1)O2)O[C@H](Cc1ccc(O)c(O)c1)C(=O)O [Lithospermic acid]
-0.527 | 0.435 |  | 18718.9 | 20023.7 | 17414.1 |  |  |  |  | -0.046 |  |  | COc1ccc(CCC(=O)c2ccc(O)cc2)c(OC)c1 [Loureirin A]
1.015 | 0.248 |  | 26974.5 | 38536.8 | 15412.2 |  |  |  | 0.631 |  |  |  | COc1cc(OC)c(CCC(=O)c2ccc(O)cc2)c(OC)c1 [Loureirin B]
0.331 | -0.667 |  | 17984.5 | 30325.1 | 5643.99 |  |  |  |  | -0.168 |  |  | O=C1c2ccccc2C(=O)c2c1cc(O)c(CO)c2O [Lucidin]
-0.6 | -0.013 | -0.307 |  |  |  | 15884.9 | 19142 | 12627.8 |  |  |  |  | O=C(O)[C@H]1O[C@@H](Oc2cc(O)c3c(=O)cc(-c4ccc(O)c(O)c4)oc3c2)[C@H](O)[C@@H](O)[C@@H]1O [Luteolin 7-O-glucuronide]
-0.224 | 0.189 |  | 19220 | 23659 | 14781.1 |  |  |  |  | -0.018 |  |  | O=C(CCCCCCCCc1ccc(O)c(O)c1)c1c(O)cccc1O [Malabaricone C]
-0.381 | -0.64 | -0.51 |  | 21773.2 | 5935.58 | 13854.4 |  |  |  |  |  |  | COc1ccc(-c2oc3c(CCC(C)(C)O)c(O[C@@H]4O[C@H](CO)[C@@H](O)[C@H](O)[C@H]4O)cc(O)c3c(=O)c2O)cc1 [Maohuoside A]
0.781 | 1.032 |  | 29752.2 | 35719.4 | 23785 |  |  |  |  |  |  | 0.906 | C[C@@H]1O[C@@H](OC[C@H]2O[C@@H](Oc3c(-c4ccc(O)cc4)oc4cc(O)cc(O)c4c3=O)[C@H](O[C@@H]3O[C@@H](C)[C@H](O)[C@@H](O)[C@H]3O)[C@@H](O)[C@H]2O)[C@H](O)[C@H](O)[C@H]1O [Mauritianin]
-1.304 | -0.878 | -1.091 | 7038.23 | 10691.8 | 3384.65 |  |  |  |  |  |  |  | O=c1cc(-c2ccc(O)cc2)oc2cc(O)c([C@@H]3O[C@H](CO)[C@@H](O)[C@H](O)[C@H]3O[C@@H]3O[C@H](CO)[C@@H](O)[C@H](O)[C@H]3O)c(O)c12 [Meloside A]
0.5 | 0.017 |  | 22646.3 | 32350 | 12942.5 |  |  |  |  |  | 0.258 |  | COc1ccc(O)cc1 [Mequinol]
